The data set can be described thus: In vitro skin permeation study, Franz diffusion cell, passive diffusion or sonophoresis. The class given is in vitro ADME, human. The source says: The experimental setup to run sonophoresis (ultrasound) studies with Franz cell diffusion cells consisted of a custom-built universal generator capable of driving ultrasonic transducers in the 20 kHz-2 MHz range with electronic power up to 60 W (Voltage+/−30V, Current: 2 A, duty cycle 50%) with a square waveform. The real power delivered to the transducer depended on the specific experimental conditions and is specified for each experiment. The driving waveform was delivered to the transducer through a coaxial cable having a BNC connector at one end and a custom non-coaxial connector at the transducer end.
The transducer was piezoelectric and had either a disk shaped form (either 20 or 25 mm in diameter) or a rectangular shape 10×20 mm^2). The thickness of the transducer depended on its fundamental frequency being inversely proportional with it. In order to prevent the liquid or the gel from perturbing the electrical connection, each transducer was encapsulated in a plastic case leaving only one side of the transducer exposed to the topical composition. The case was made out of a rigid plastic and the transducers were sealed with silicone adhesive to enable them to oscilalte more or less freely. The case also enabled the electrical connections to be isolated from the topical composition.
For sonophoresis experiments where the ultrasonic wave energy was delivered perpendicular to the skin, disk-shaped transducers were used in the encapsulation setup described above. For the angled ultrasound application the case encapsulating the ultrasonic transducer was assembled in a hinged configuration, enabling angles between 15 and 90 degrees (perpendicular). Note: an angle of 0 degrees would send the ultrasonic wave parallel with the skin surface.
In vitro skin permeation studies on 5% Ibuprofen gel compositions without ultrasound (passive diffusion), or facilitated by the application of ultrasound (sonophoresis), through human cadaver skin were performed as follows:
A skin penetration study evaluated the penetration of ibuprofen through the human skin for the inventive sample prepared as disclosed in Example 1. A commercial ibuprofen gel product, IBULEVE Ibuprofen Gel (by DDD ltd, Watford, Herts, WD18 7JJ, UK) was used as a benchmark, which contains 5% W/W ibuprofen, also IMS (Industrial Methylated Spirits), carbomer, propylene glycol, diethylamine and purified water according to the product label on its package. A well-known Franz diffusion cell method (taught in US20020006418 A1 which is hereby incorporated by reference) was used. […] A magnetic stirrer bar was added in the […]. The liquid receptor was filled with Phosphate-buffered saline (PBS) solution. Air bubbles in the […] were removed. The system was thermostated at 37° C. above a magnetic stirrer to ensure the homogeneity of the liquid receptor during the experiment. A human cadaver skin sample from a commercial tissue bank (Ohio Valley Tissue and Skin Center, Cincinnati, Ohio, dermatomed to approximately 0.4 mm) was cut to fit the glass diffusion cell and the skin was mounted on the Franz cell.
For the diffusion cells designated to be tested for passive diffusion, a test gel sample of 0.2 ml was applied on the skin surface. For the diffusion cells designated to test for sonophoresis, additional test sample (2-5 ml) was added in order to assure the entire, or at least a large portion, of the ultrasonic transducer tip was immersed by the test gel during the ultrasound treatment. The excess gel was promptly removed from the donor cell after the ultrasound treatment so that the remaining test gel was approximately 0.2 ml.
Ultrasound treatments were carried out with the following test conditions: • a) Conventional ultrasound treatment with 90 degree angle (°) between the ultrasound direction and the skin surface; • b) Angled Ultrasound treatment with less than 90 degree angle between the ultrasound direction and the skin surface. […]

Experimental findings from US10449348B2, “Devices and methods for enhancing the topical application of a benefit agent” (Johnson & Johnson Consumer Inc., priority 2015, dated 2019) are described below.

For `CC(C)Cc1ccc(C(C)C(=O)O)cc1` (stereo not shown) [ibuprofen], the permeation enhancement factor result runs as follows: (15 degree UT sonophoresis vs without ultrasound, 6th hour) “approximately 3.0 fold”; (15 degree UT sonophoresis vs without ultrasound, 24th hour) “approximately 3.0 fold”; (60 degree UT sonophoresis vs without ultrasound, 6th hour) “approximately 2.9 fold”; (60 degree UT sonophoresis vs without ultrasound, 24th hour) ~2.0 fold; (90 degree UT sonophoresis vs without ultrasound, 6th hour) “approximately 2.3 fold”; (90 degree UT sonophoresis vs without ultrasound, 24th hour) ~2.0 fold. Further, the “ibuprofen permeation through the human skin versus no ultrasound” value is recorded as “significantly enhanced” (15 degree ultrasound treatment), “significantly enhanced” (45 degree angled sonophoresis), “significantly enhanced” (60 degree angled sonophoresis) and “significantly enhanced” (90 degree ultrasound treatment).
